Laboratory results from US11565005B2, “Dota-hapten compositions for anti-dota/anti-tumor antigen bispecific antibody pretargeted radioimmunotherapy” (MEMORIAL SLOAN KETTERING CANCER CENTER, priority 2017, dated 2023).
Marks after values point to notes of the source that are not given here.

Legend:
[1] = system: GPA33-expressing SW1222 xenografts; experiment: Anti-GPA33-DOTA-PRIT + [^225Ac]Proteus-DOTA biodistribution; conditions: for Blood uptake / SW1222 tumor uptake: pretargeted with huA33-C825 + clearing agent
Method: Biodistribution Experiments. A treatment cycle of anti-GPA33 DOTA-PRIT consisted of three separate intravenous injections via the tail vein: 0.25 mg of huA33-C825 antibody (described in WO2016/130539) at t=−28 h, then […] of clearing agent (500 kD-dextran-DOTA-Bn(Y)) at t=−4 h, and [^225Ac]Proteus-DOTA at t=0. For ex vivo biodistribution analysis following the radiohaptens or anti-HER2-C825/[^225Ac]Proteus-DOTA, mice were euthanized by CO2(g) asphyxiation, and the tumors and selected organs were harvested, rinsed with water, air-dried, weighed, and radioassayed by gamma scintillation counting (Perkin Elmer Wallac Wizard 3″, Perkin Elmer, Waltham, Mass.). Count rates were background- and decay-corrected, converted to activities using a system calibration factor specific for the isotope, normalized to the administered activity, and expressed as average percent injected dose per gram (% ID/g)±1 standard deviation. Differences in radioactivity concentration in tumor and various tissues were analyzed by Student's unpaired t test when appropriate.
Biodistribution Studies Following In vivo Targeting with Anti-GPA33-DOTA-PRIT+[^225Ac]Proteus-DOTA. [^225Ac]Proteus-DOTA was prepared to a final specific activity of 0.20 Ci/g or 274 Ci/mol and injected into groups of animals within 24-48 hours of preparation. Animals that had received injections of huA33-C825 and clearing agent were injected with […] of [^225Ac]Proteus-DOTA that was prepared approximately 24 hours prior. The following day, animals were sacrificed for ex vivo biodistribution assessment at 24 hours post injection of [^225Ac]Proteus-DOTA in tumors and select normal tissues. A control group of non-tumor bearing animals were injected with […] of [^225Ac]Proteus-DOTA that was prepared approximately 48 hours prior, and were sacrificed 1 hour post injection of [^225Ac]Proteus-DOTA for ex vivo biodistribution assessment in normal tissues. Carcass radioactivity was not collected during this study.
A control group of healthy nude mice were injected with [^225Ac]Proteus-DOTA only (198 pmol, 1.85 kBq [50 nCi]) to evaluate normal tissue uptake of the [^225Ac]Proteus-DOTA preparation.
These mice were sacrificed 24 h p.i. of [^225Ac]Proteus-DOTA for biodistribution assay. All animals were sacrificed at 24 h p.i. for biodistribution.

[2] = Dose-escalation toxicology study of [^225Ac]Proteus-DOTA in healthy nude mice; format: in vivo
Method: The maximum tolerated dose was not reached. Treated animal weights plotted as the percentage of pre-treatment baseline weight. Asterisk (*) indicates mouse required euthanasia or was discovered deceased. Data is presented as mean ±SD.
Toxicology study of [^225Ac]Pr-DOTA in healthy mice. A dose-escalation toxicity study was performed to evaluate any morbidity and histopathological damage attributed to [^225Ac]Proteus-DOTA. […] Unscheduled mortality (mice found dead or found sick and euthanized) were submitted for pathology. […] A total of three unscheduled mortalities occurred: 2/5 from the 0.5 μCi dose group; one on day 36 that was submitted for necropsy because of 20% weight loss-no gross pathologic or histopathologic lesions were observed, and no significant findings were observed on hematology and serum chemistry; and by the time the other mouse was found dead on day 144, necropsy was not possible. In addition, one mouse from group 8 μCi was euthanized after 123 days with a Staphylococcus bacterial infection. The significant findings in this mouse were histiocytic and eosinophilic myocardis, eosinophilic interstitial pneumonia, soft tissue hemorrhages, marked thrombocytopenia, and mild anemia with elevation of reticulocytes. The myocarditis, pnemonia, and mild anemia were related to some findings observed at scheduled sacrifice. Such thrombocytopenia with secondary hemorrhages was not observed in other mice in this study. Serum chemistry was unremarkable.

[3] = 24 h p.i., n = 3, listed as [^225Ac] Proteus-DOTA

O=C([O-])CN1CCN(CC(=O)[O-])CCN(CC(=O)NCCOCCOCCOCCOCCNC(=S)Nc2ccc(CC3CN(CC(=O)[O-])CCN(CC(=O)[O-])CCN(CC(=O)[O-])CCN3CC(=O)[O-])cc2)CCN(CC(=O)[O-])CC1.[225Ac+3].[Lu+3] (stereo not shown) [[^225Ac]Proteus-DOTA]
Blood uptake ([1]; 24 h p.i., n = 3): 0.94±0.26 % ID/g
SW1222 tumor uptake ([1]; 24 h p.i., n = 3): 16.71±2.95 % ID/g
Blood uptake [1, 3]: 0.94 ± 0.26^a % ID/g
SW1222 tumor uptake [1, 3]: 16.71 ± 2.95 % ID/g
Bone uptake ([1]; pretargeted, 24 h p.i.): undetectable
Tumor-to-tissue ratio, Blood ([1]; pretargeted, 24 h p.i.): 17.9 ± 4.0
Tumor-to-tissue ratio, Heart ([1]; pretargeted, 24 h p.i.): 60.4 ± 35.8
Tumor-to-tissue ratio, Kidneys ([1]; pretargeted, 24 h p.i.): 15.5 ± 4.8
Tumor-to-tissue ratio, Large Intestine ([1]; pretargeted, 24 h p.i.): 147.5 ± 90.9
Tumor-to-tissue ratio, Liver ([1]; pretargeted, 24 h p.i.): 11.9 ± 4.2
Tumor-to-tissue ratio, Lungs ([1]; pretargeted, 24 h p.i.): 24.0 ± 13.5
Tumor-to-tissue ratio, Muscle ([1]; pretargeted, 24 h p.i.): 128.6 ± 129.2
Tumor-to-tissue ratio, Small Intestine ([1]; pretargeted, 24 h p.i.): 102.3 ± 67.1
Tumor-to-tissue ratio, Spleen ([1]; pretargeted, 24 h p.i.): 31.1 ± 31.3
Tumor-to-tissue ratio, Stomach ([1]; pretargeted, 24 h p.i.): 238.8 ± 150.7
blood uptake (percent injected activity per gram of tissue) ([1]; pretargeted, 24 h p.i.): 0.94±0.26 % IA/g
kidney uptake (percent injected activity per gram of tissue) ([1]; pretargeted, 24 h p.i.): 1.08±0.55 % IA/g
liver uptake (percent injected activity per gram of tissue) ([1]; pretargeted, 24 h p.i.): 1.40±0.47 % IA/g
Bone uptake ([1]; pretargeted, 24 h p.i., n = 3): 0.00 ± 0.00 % ID/g
Heart uptake ([1]; pretargeted, 24 h p.i., n = 3): 0.28 ± 0.28 % ID/g
Kidneys uptake ([1]; pretargeted, 24 h p.i., n = 3): 1.08±0.55 % ID/g
Large Intestine uptake ([1]; pretargeted, 24 h p.i., n = 3): 0.11 ± 0.12 % ID/g
Liver uptake ([1]; pretargeted, 24 h p.i., n = 3): 1.40 ± 0.82 % ID/g
Lungs uptake ([1]; pretargeted, 24 h p.i., n = 3): 0.70 ± 0.67 % ID/g
Muscle uptake ([1]; pretargeted, 24 h p.i., n = 3): 0.13 ± 0.23 % ID/g
Small Intestine uptake ([1]; pretargeted, 24 h p.i., n = 3): 0.16 ± 0.18 % ID/g
Spleen uptake ([1]; pretargeted, 24 h p.i., n = 3): 0.54 ± 0.93 % ID/g
Stomach uptake ([1]; pretargeted, 24 h p.i., n = 3): 0.07 ± 0.08 % ID/g
Kidneys uptake ([1]; pretargeted, 24 h p.i., n = 3, listed as [^225Ac] Proteus-DOTA): 1.08 ± 0.55 % ID/g
tumor uptake (percent injected activity per gram of tissue) ([1]; pretargeted, SW1222, 24 h p.i.): 16.71±2.95 % IA/g
toxicity (defined as >10% weight loss) ([2]; 0.25-8 μCi/mouse, 145 days): no toxicity was observed
mice affected by histiocytic and eosinophilic inflammation ([2]; 0.25 μCi): 0/5
mice affected by histiocytic and eosinophilic inflammation ([2]; 0.5 μCi): 0/4
unscheduled mortalities ([2]; 0.5 μCi dose group (day 36 and day 144)): 2/5
mice affected by histiocytic and eosinophilic inflammation ([2]; 1 μCi): 0/5
mice affected by histiocytic and eosinophilic inflammation ([2]; 2 μCi): 1/5
mice affected by histiocytic and eosinophilic inflammation ([2]; 4 μCi): 1/5
mice affected by histiocytic and eosinophilic inflammation ([2]; 8 Ci group): 3/5
unscheduled mortalities (euthanized, Staphylococcus bacterial infection) ([2]; 8 μCi group, after 123 days): one
organ weights at necropsy ([2]; 145 days, varying dose levels): No significant group differences
unscheduled mortalities, total ([2]; all dose groups, 145 days): three
radiation-induced histologic organ damage at necropsy ([2]; any dose level, 145 days): no radiation-induced histologic organ damage
effect on serum chemistry ([2]; any dose level, n=29): No effect
overall toxicity, acute or chronic radiation damage to normal tissues ([2]; doses as high as 8 μCi (296 kBq)/mouse): nontoxic
decrease of red blood cells mass ([2]; highest dose group (8 μCi)): ~10%
maximum tolerated dose ([2]; single i.v. doses 0.25-8 μCi/mouse): not reached
